Source: ChEMBL document CHEMBL4229359, “Simple 2(5H)-furanone derivatives with selective cytotoxicity towards non-small cell lung cancer cell line A549 - Synthesis, structure-activity relationship and biological evaluation” (Eur J Med Chem, 2018)
Activity calls are given as the source filed them. The rule behind the calls is not given here.

Columns and labels:
[1] = test system: A549; assay: Induction of apoptosis in human A549 cells assessed as caspase-3 cleavage at 20 uM after 72 hrs by Western blot analysis; type: functional, cell-based
[2] = test system: BEAS-2B; assay: Cytotoxicity against human BEAS2B cells assessed as reduction in cell viability after 72 hrs by MTT assay; type: cell-based
[3] = test system: HCT-116; assay: Cytotoxicity against human HCT116 cells assessed as reduction in cell viability after 72 hrs by MTT assay; type: functional, cell-based; details: HCT-116, 72 h
[4] = test system: A549; assay: Induction of apoptosis in human A549 cells assessed as live cells at 20 uM after 72 hrs by Annexin V-FITC/propidium iodide staining based flow cytometry (reference value: 98.5%); type: functional
[5] = test system: LoVo; assay: Cytotoxicity against human LoVo cells assessed as reduction in cell viability after 72 hrs by MTT assay; type: functional, cell-based
[6] = test system: A549; assay: Induction of apoptosis in human A549 cells assessed as late apoptotic cells at 20 uM after 72 hrs by Annexin V-FITC/propidium iodide staining based flow cytometry (reference value: 0.5%); type: functional
[7] = test system: A549; assay: Synergistic cell cycle arrest in human A549 cells assessed as accumulation at G2/M-phase at 10 uM after 72 hrs in presence of 10 uM erlotinib by propidium iodide staining based flow cytometry (reference value: 7.2%); type: functional
[8] = test system: HCT-116; assay: Cytotoxicity against p53-/- human HCT116 cells assessed as reduction in cell viability after 72 hrs by MTT assay; type: functional, cell-based; details: HCT-116, 72 h
[9] = test system: A549; assay: Cell cycle arrest in human A549 cells assessed as accumulation at G2/M-phase at 20 uM after 72 hrs by propidium iodide staining based flow cytometry (reference value: 6.7%); type: functional
[10] = test system: A549; assay: Induction of apoptosis in human A549 cells assessed as early apoptotic cells at 20 uM after 72 hrs by Annexin V-FITC/propidium iodide staining based flow cytometry (reference value: 0.4%); type: functional
[11] = test system: A549; assay: Synergistic anticlonogenic activity against human A549 cells at 10 uM after 72 hrs in presence of 10 uM erlotinib by crystal violet staining based microscopic method; type: functional
[12] = test system: HT-29; assay: Cytotoxicity against human HT-29 cells assessed as reduction in cell viability after 72 hrs by MTT assay; type: functional, cell-based; details: HT-29, 72 h
[13] = test system: A549; assay: Effect on Pro-caspase-3 protein expression in human A549 cells at 20 uM after 72 hrs by densitometric analysis; type: functional, cell-based
[14] = test system: A549; assay: Effect on Bcl-x protein expression in human A549 cells at 20 uM after 72 hrs by densitometric analysis; type: functional, cell-based
[15] = test system: A549; assay: Induction of mitosis in human A549 cells at 10 uM after 24 hrs by DAPI staining based fluorescence microscopic method; type: functional, cell-based
[16] = test system: MCF7; assay: Cytotoxicity against human MCF7 cells assessed as reduction in cell viability after 72 hrs by MTT assay; type: functional, cell-based; details: MCF7, 72 h
[17] = test system: A549; assay: Cell cycle arrest in human A549 cells assessed as accumulation at G1-phase at 20 uM after 72 hrs by propidium iodide staining based flow cytometry (reference value: 61.5%); type: functional
[18] = test system: A549; assay: Effect on cleaved caspase-3 protein expression in human A549 cells at 20 uM after 72 hrs by densitometric analysis; type: functional, cell-based
[19] = test system: A549; assay: Downregulation of Cyclin-B1 protein expression in human A549 cells at 10 uM after 72 hrs by Western blot analysis; type: functional, cell-based
[20] = test system: A549; assay: Effect on Bad protein expression in human A549 cells at 20 uM after 72 hrs by densitometric analysis; type: functional, cell-based
[21] = test system: A549; assay: Effect on Bax protein expression in human A549 cells at 20 uM after 72 hrs by densitometric analysis; type: functional, cell-based
[22] = test system: Hep 3B2; assay: Cytotoxicity against human Hep3B cells assessed as reduction in cell viability after 72 hrs by MTT assay; type: functional, cell-based
[23] = test system: A549; assay: Cell cycle arrest in human A549 cells assessed as accumulation at S-phase at 10 uM after 72 hrs by propidium iodide staining based flow cytometry (reference value: 16.8 to 18.5%); type: functional
[24] = test system: A549; assay: Cell cycle arrest in human A549 cells assessed as accumulation at S-phase at 20 uM after 72 hrs by propidium iodide staining based flow cytometry (reference value: 31.9%); type: functional
[25] = test system: A549; assay: Cell cycle arrest in human A549 cells assessed as accumulation at G1-phase at 10 uM after 72 hrs by propidium iodide staining based flow cytometry (reference value: 75.2 to 76%); type: functional
[26] = test system: A549; assay: Induction of apoptosis in human A549 cells at 20 uM after 72 hrs by Annexin V-FITC/propidium iodide staining based flow cytometry relative to control; type: functional
[27] = test system: A549; assay: Synergistic cell cycle arrest in human A549 cells assessed as accumulation at S-phase at 10 uM after 72 hrs in presence of 10 uM erlotinib by propidium iodide staining based flow cytometry (reference value: 16.8%); type: functional
[28] = test system: A549; assay: Anticlonogenic activity against human A549 cells assessed as colony formation at 10 uM after 72 hrs by crystal violet staining based microscopic method relative to control; type: functional
[29] = test system: PC-3; assay: Cytotoxicity against human PC3 cells assessed as reduction in cell viability after 72 hrs by MTT assay; type: functional, cell-based; details: PC-3, 72 h
[30] = test system: A549; assay: Induction of apoptosis in human A549 cells assessed as necrotic cells at 20 uM after 72 hrs by Annexin V-FITC/propidium iodide staining based flow cytometry (reference value: 0.6%); type: functional
[31] = test system: A549; assay: Cell cycle arrest in human A549 cells assessed as accumulation at G2/M-phase at 10 uM after 72 hrs by propidium iodide staining based flow cytometry (reference value: 6.3 to 7.2%); type: functional
[32] = test system: A549; assay: Cytotoxicity against human A549 cells assessed as reduction in cell viability after 72 hrs by MTT assay; type: functional, cell-based; details: A549, 72 h
[33] = test system: A549; assay: Anticlonogenic activity against human A549 cells assessed as colony formation at 5 uM after 72 hrs by crystal violet staining based microscopic method relative to control; type: functional
[34] = test system: A549; assay: Cell cycle arrest in human A549 cells assessed as accumulation at S-phase at 10 uM after 24 hrs by propidium iodide staining based flow cytometry (reference value: 34.1%); type: functional
[35] = test system: A549; assay: Cell cycle arrest in human A549 cells assessed as accumulation at G2/M-phase at 10 uM after 24 hrs by propidium iodide staining based flow cytometry (reference value: 6.5%); type: functional
[36] = test system: DU-145; assay: Cytotoxicity against human DU145 cells assessed as reduction in cell viability after 72 hrs by MTT assay; type: functional, cell-based; details: DU-145, 72 h
[37] = test system: A549; assay: Effect on Bcl2 protein expression in human A549 cells at 20 uM after 72 hrs by densitometric analysis; type: functional, cell-based
[38] = test system: A549; assay: Synergistic cell cycle arrest in human A549 cells assessed as accumulation at G1-phase at 10 uM after 72 hrs in presence of 10 uM erlotinib by propidium iodide staining based flow cytometry (reference value: 76%); type: functional
[39] = test system: HepG2; assay: Cytotoxicity against human HepG2 cells assessed as reduction in cell viability after 72 hrs by MTT assay; type: functional, cell-based; details: HepG2, 72 h
[40] = Selectivity index, ratio of IC50 for human BEAS2B cells to IC50 for human A549 cells; type: toxicity
[41] = test system: A549; assay: Synergistic cytotoxicity against human A549 cells assessed as reduction in cell viability at 10 uM after 72 hrs in presence of 5 to 20 uM erlotinib by MTT assay; type: functional, cell-based
[42] = test system: A549; assay: Anticlonogenic activity against human A549 cells at 10 uM after 72 hrs by crystal violet staining based microscopic method relative to control; type: functional
[43] = test system: A549; assay: Cell cycle arrest in human A549 cells assessed as accumulation at G1-phase at 10 uM after 24 hrs by propidium iodide staining based flow cytometry (reference value: 59.4%); type: functional
[44] = test system: SJSA-1; assay: Cytotoxicity against human SJSA1 cells assessed as reduction in cell viability after 72 hrs by MTT assay; type: functional, cell-based; details: SJSA-1, 72 h
[45] = test system: U2OS; assay: Cytotoxicity against human U2OS cells assessed as reduction in cell viability after 72 hrs by MTT assay; type: functional, cell-based
[46] = test system: A549; assay: Anticlonogenic activity against human A549 cells at 10 uM after 24 to 72 hrs by crystal violet staining based microscopic method; type: functional, cell-based
[47] = test system: A549; assay: Upregulation of Cyclin-B1 protein expression in human A549 cells at 10 uM after 72 hrs by Western blot analysis; type: functional, cell-based

## CC(C)OC1OC(=O)C(Cl)=C1Cl (stereo unspecified)
[1]
  Activity: inactive
[2]
  IC50: 27.5 µM
[3]
  IC50: 7.2 µM
[4]
  Activity: 63.9%
[5]
  IC50: 2.8 µM
[6]
  Activity: 25.7%
[7]
  Activity: 16.6%
[8]
  IC50: 6.8 µM
[9]
  Activity: 4.7%
[10]
  Activity: 6.5%
[11]
  Activity: 89%
[12]
  IC50: 7.2 µM
[13]
  Activity: inactive
[14]
  Activity: inactive
[15]
  Activity: inactive
[16]
  IC50: 12.4 µM
[17]
  Activity: 48%
[18]
  Activity: inactive
[19]
  Activity: Active
[20]
  Activity: inactive
[21]
  Activity: inactive
[22]
  IC50: 19.8 µM
[23]
  Activity: 19.3 - 26.2%
[24]
  Activity: 47.3%
[25]
  Activity: 59.9 - 68.2%
[26]
  fold change (FC): 36
[27]
  Activity: 31.9%
[28]
  Activity: 15%
[29]
  IC50: 4.8 µM
[30]
  Activity: 3.9%
[31]
  Activity: 12.5 - 13.9%
[32]
  IC50: 6.7 µM
[33]
  Activity: 40%
[34]
  Activity: 36.6%
[35]
  Activity: 23.4%
[36]
  IC50: 25.4 µM
[37]
  Activity: inactive
[38]
  Activity: 51.4%
[39]
  IC50: 16.8 µM
[40]
  log(RatioIC50): 0.61
[41]
  Activity: inactive
[42]
  Activity: 86%
[43]
  Activity: 40%
[44]
  IC50: 7.7 µM
[45]
  IC50: 21.1 µM

## CC(C)(C)COC1OC(=O)C(Cl)=C1Cl (stereo unspecified)
[1]
  Activity: inactive
[2]
  IC50: 59 µM
[3]
  IC50: 7.2 µM
[4]
  Activity: 77.7%
[5]
  IC50: 7.3 µM
[6]
  Activity: 16.1%
[8]
  IC50: 6.2 µM
[9]
  Activity: 8%
[10]
  Activity: 4.2%
[12]
  IC50: 7.2 µM
[13]
  Activity: inactive
[14]
  Activity: inactive
[46]
  Activity: Active
[16]
  IC50: 11.2 µM
[17]
  Activity: 51.2%
[47]
  Activity: inactive
[18]
  Activity: inactive
[20]
  Activity: inactive
[21]
  Activity: inactive
[22]
  IC50: 27.8 µM
[23]
  Activity: 17.6%
[24]
  Activity: 40.8%
[25]
  Activity: 74%
[29]
  IC50: 6 µM
[30]
  Activity: 2.3%
[31]
  Activity: 8.4%
[32]
  IC50: 7.7 µM
[34]
  Activity: 32.6%
[35]
  Activity: 5.3%
[36]
  IC50: 26.8 µM
[37]
  Activity: inactive
[39]
  IC50: 17.6 µM
[40]
  log(RatioIC50): 0.88
[43]
  Activity: 62.1%
[44]
  IC50: 11.1 µM
[45]
  IC50: 38.1 µM

## C#Cc1cccc(Nc2ncnc3cc(OCCOC)c(OCCOC)cc23)c1 [ERLOTINIB]
[23]
  Activity: 18.5%
[25]
  Activity: 74.5%
[31]
  Activity: 6%
[42]
  Activity: 75%

## O=C1OC(O)C(Cl)=C1Cl (stereo unspecified) [MUCOCHLORIC ACID]
[1]
  Activity: inactive
[2]
  IC50: 45 µM
[3]
  IC50: 8.3 µM
[4]
  Activity: 98.6%
[5]
  IC50: 17.2 µM
[6]
  Activity: 0.3%
[8]
  IC50: 10.8 µM
[9]
  Activity: 6.9%
[10]
  Activity: 0.3%
[12]
  IC50: 21.8 µM
[13]
  Activity: inactive
[14]
  Activity: inactive
[46]
  Activity: inactive
[16]
  IC50: 32.3 µM
[17]
  Activity: 64.2%
[47]
  Activity: inactive
[18]
  Activity: inactive
[20]
  Activity: inactive
[21]
  Activity: inactive
[22]
  IC50: 85.1 µM
[23]
  Activity: 18.8%
[24]
  Activity: 29%
[25]
  Activity: 74%
[29]
  IC50: 24.7 µM
[30]
  Activity: 0.8%
[31]
  Activity: 7.2%
[32]
  IC50: 123 µM
[34]
  Activity: 33.3%
[35]
  Activity: 8%
[36]
  IC50: 130 µM
[37]
  Activity: inactive
[39]
  IC50: 111 µM
[40]
  log(RatioIC50): -0.44
[43]
  Activity: 58.7%
[44]
  IC50: 39.4 µM
[45]
  IC50: 58.5 µM
